In series [1] the test system is Puccinia recondita f. Sp. tritici. The experiment in a line: Puccinia recondita f. sp. tritici / wheat / leaf disc preventative (brown rust). Type of series: in vivo. The settings on record: foliar, 200 ppm in the applied formulation, compared to untreated control, read-out: disease control. The method, then: Leaf disks or leaf segments of various plant species are cut from plants grown in a greenhouse. The cut leaf disks or segments are placed in multiwell plates (24-well format) onto water agar. The leaf disks are sprayed with a test solution before (preventative) or after (curative) inoculation. Compounds to be tested are prepared as DMSO solutions (max. 10 mg/ml) which are diluted to the appropriate concentration with 0.025% Tween20 just before spraying. The inoculated leaf disks or segments are incubated under defined conditions (temperature, relative humidity, light, etc.) according to the respective test system. A single evaluation of disease level is carried out 3 to 14 days after inoculation, depending on the pathosystem. Percent disease control relative to the untreated check leaf disks or segments is then calculated. Wheat leaf segments cv. Kanzler were placed on agar in multiwell plates (24-well format) and sprayed with the formulated test compound diluted in water. The leaf disks were inoculated with a spore suspension of the fungus 1 day after application. The inoculated leaf segments were incubated at 19° C. and 75% relative humidity (rh) under a light regime of 12 hours light/12 hours darkness in a climate cabinet and the activity of a compound was assessed as percent disease control compared to untreated when an appropriate level of disease damage appears in untreated check leaf segments (7 to 9 days after application). The following compounds at 200 ppm in the applied formulation give at least 80% disease control in this test when compared to untreated control leaf disks under the same conditions, which show extensive disease development.

The test system is the same in series [2]. Kind of series: Puccinia recondita f. sp. tritici / wheat / leaf disc curative (brown rust). The format is in vivo. The settings on record: foliar, 200 ppm in the applied formulation, compared to untreated control, read-out: disease control. The method, then: (§1) Leaf disks or leaf segments of various plant species are cut from plants grown in a greenhouse. The cut leaf disks or segments are placed in multiwell plates (24-well format) onto water agar. The leaf disks are sprayed with a test solution before (preventative) or after (curative) inoculation. Compounds to be tested are prepared as DMSO solutions (max. 10 mg/ml) which are diluted to the appropriate concentration with 0.025% Tween20 just before spraying. The inoculated leaf disks or segments are incubated under defined conditions (temperature, relative humidity, light, etc.) according to the respective test system. A single evaluation of disease level is carried out 3 to 14 days after inoculation, depending on the pathosystem. Percent disease control relative to the untreated check leaf disks or segments is then calculated.
Wheat leaf segments cv. Kanzler are placed on agar in multiwell plates (24-well format). The leaf segments are then inoculated with a spore suspension of the fungus. Plates were stored in darkness at 19° C. and 75% relative humidity. The formulated test compound diluted in water was applied 1 day after inoculation. The leaf segments were incubated at 19° C. and 75% relative humidity under a light regime of 12 hours light/12 hours darkness in a climate cabinet and the activity of a compound was assessed as percent disease control compared to untreated when an appropriate level of disease damage appears in untreated check leaf segments (6 to 8 days after application).
(§2) The following compounds at 200 ppm in the applied formulation give at least 80% disease control in this test when compared to untreated control leaf disks under the same conditions, which show extensive disease development.

Series [3] concerns Glomerella lacenarium (Colletotrichum lacenarium). The experiment in a line: Glomerella lacenarium (Colletotrichum lacenarium) liquid culture / cucumber / preventative (anthracnose). The settings on record: 20 ppm in the applied formulation, growth inhibition measured photometrically, compared to untreated control, read-out: disease control. The format is cell-based. The method, then:
Mycelia fragments or conidia suspensions of a fungus prepared either freshly from liquid cultures of the fungus or from cryogenic storage, are directly mixed into nutrient broth. DMSO solutions of the test compound (max. 10 mg/ml) are diluted with 0.025% Tween20 by a factor of 50 and 10 μl of this solution is pipetted into a microtiter plate (96-well format). The nutrient broth containing the fungal spores/mycelia fragments is then added to give an end concentration of the tested compound. The test plates are incubated in the dark at 24° C. and 96% relative humidity. The inhibition of fungal growth is determined photometrically after 2 to 7 days, depending on the pathosystem, and percent antifungal activity relative to the untreated check is calculated.
Conidia of the fungus from cryogenic storage are directly mixed into nutrient broth (PDB—potato dextrose broth). After placing a (DMSO) solution of test compound into a microtiter plate (96-well format), the nutrient broth containing the fungal spores is added. The test plates are incubated at 24° C. and the inhibition of growth is measured photometrically 3 to 4 days after application.
The following compounds at 20 ppm in the applied formulation give at least 80% disease control in this test when compared to untreated control under the same conditions, which show extensive disease development.

A further series deals with Phakopsora pachyrhizi. Kind of series: Phakopsora pachyrhizi / soybean / leaf disc preventative (Asian soybean rust). The settings on record: foliar, 200 ppm in the applied formulation, compared to untreated control, read-out: disease control. Type of series: in vivo. The method, then:
as §1
Soybean leaf disks are placed on water agar in multiwell plates (24-well format) and sprayed with the formulated test compound diluted in water. One day after application leaf discs are inoculated by spraying a spore suspension on the lower leaf surface. After an incubation period in a climate cabinet of 24-36 hours in darkness at 20° C. and 75% rh leaf disc are kept at 20° C. with 12 h light/day and 75% rh. The activity of a compound is assessed as percent disease control compared to untreated when an appropriate level of disease damage appears in untreated check leaf disks (12 to 14 days after application).
as §2

For the compound `Cc1ccc(C(O)c2ccc(-c3noc(C(F)(F)F)n3)cc2)nc1` (stereo not drawn) [Compound 2.21, (5-methyl-2-pyridyl)-[4-[5-(trifluoromethyl)-1,2,4-oxadiazol-3-yl]phenyl]methanol], the pest or weed control at 200 ppm in series [1] and in series [2] was no less than 80% each time.

Turning to `OC(c1ccc(-c2noc(C(F)(F)F)n2)cc1)c1cscn1` (stereo not drawn) [Compound 2.18, thiazol-4-yl-[4-[5-(trifluoromethyl)-1,2,4-oxadiazol-3-yl]phenyl]methanol], the melting point (usually the temperature, or range, at which the solid turns liquid) was 56 to 60 °C. Further, the pest or weed control at 200 ppm in series [1] is no less than 80%. Further, the pest or weed control at 200 ppm in series [2] is no less than 80%. Further, the inhibition of growth at 20 ppm in series [3] is no less than 80%.

On to `Cc1cc(C(C)(O)c2ccc(-c3noc(C(F)(F)F)n3)cc2)on1` (stereo not drawn) [Compound 2.26, 1-(3-methylisoxazol-5-yl)-1-[4-[5-(trifluoromethyl)-1,2,4-oxadiazol-3-yl]phenyl]ethanol], for which the pest or weed control at 200 ppm in series [1] and in series [2] was no less than 80% each time.

Consider `O=C(c1ccc(-c2noc(C(F)(F)F)n2)cc1)c1ccno1` [Compound 1.35, isoxazol-5-yl-[4-[5-(trifluoromethyl)-1,2,4-oxadiazol-3-yl]phenyl]methanone], for which the melting point fell in the range of 112 to 118 °C. The pest or weed control at 200 ppm in series [1] is no less than 80%. Also, the pest or weed control at 200 ppm in series [2] was no less than 80%. Also, the inhibition of growth at 20 ppm in series [3] is no less than 80%.

For the compound `CCc1cc(C(=O)c2ccc(-c3noc(C(F)(F)F)n3)cc2)on1` [Compound 1.14, (3-ethylisoxazol-5-yl)-[4-[5-(trifluoromethyl)-1,2,4-oxadiazol-3-yl]phenyl]methanone], the pest or weed control at 200 ppm (in series [1]; in series [2]; in the series on Phakopsora pachyrhizi) was no less than 80% each time. Moreover, the inhibition of growth at 20 ppm in series [3] is no less than 80%.

As to `CCC(O)(c1ccc(-c2noc(C(F)(F)F)n2)cc1)c1cc(C)no1` (stereo not drawn) [Compound 2.27, 1-(3-methylisoxazol-5-yl)-1-[4-[5-(trifluoromethyl)-1,2,4-oxadiazol-3-yl]phenyl]propan-1-ol], the pest or weed control at 200 ppm in series [1] and in series [2] was no less than 80% in each case.

Regarding `Cc1nc(C(=O)c2ccc(-c3noc(C(F)(F)F)n3)cc2)cs1` [Compound 1.33, (2-methylthiazol-4-yl)-[4-[5-(trifluoromethyl)-1,2,4-oxadiazol-3-yl]phenyl]methanone], the pest or weed control at 200 ppm in series [1] and in series [2] was no less than 80% each time. The inhibition of growth at 20 ppm in series [3] is no less than 80%.

Turning to `O=C(c1ccc(-c2noc(C(F)(F)F)n2)cc1)c1nccs1` [Compound 1.24, thiazol-2-yl-[4-[5-(trifluoromethyl)-1,2,4-oxadiazol-3-yl]phenyl]methanone], the melting point lay within 84 to 90 °C. Besides, the pest or weed control at 200 ppm in series [1] was no less than 80%. Also, the pest or weed control at 200 ppm in series [2] was no less than 80%. The pest or weed control at 200 ppm in the series on Phakopsora pachyrhizi is no less than 80%. Further, in series [3], the inhibition of growth at 20 ppm is no less than 80%.

`Cc1cccc(C(O)c2ccc(-c3noc(C(F)(F)F)n3)cc2)n1` (stereo not drawn) [Compound 2.13, (6-methyl-2-pyridyl)-[4-[5-(trifluoromethyl)-1,2,4-oxadiazol-3-yl]phenyl]methanol]: the pest or weed control at 200 ppm (in series [1]; in series [2]; with Phakopsora pachyrhizi) was no less than 80% each time. In series [3], the inhibition of growth at 20 ppm was no less than 80%.

For `Cc1cc(C(=O)c2ccc(-c3noc(C(F)(F)F)n3)cc2)on1` [Compound 1.13, (3-methylisoxazol-5-yl)-[4-[5-(trifluoromethyl)-1,2,4-oxadiazol-3-yl]phenyl]methanone], the pest or weed control at 200 ppm (in series [1]; in series [2]; in the series on Phakopsora pachyrhizi) was no less than 80% each time. In series [3], the inhibition of growth at 20 ppm is no less than 80%.

Take `Cc1cccc(C(=O)c2ccc(-c3noc(C(F)(F)F)n3)cc2)n1` [Compound 1.18, (6-methyl-2-pyridyl)-[4-[5-(trifluoromethyl)-1,2,4-oxadiazol-3-yl]phenyl]methanone]: the pest or weed control at 200 ppm (in series [1]; in series [2]; in the series with Phakopsora pachyrhizi) was no less than 80% in each case. Further, in series [3], the inhibition of growth at 20 ppm is no less than 80%.

Turning to `Cc1ccc(C(=O)c2ccc(-c3noc(C(F)(F)F)n3)cc2)nc1` [Compound 1.37, (5-methyl-2-pyridyl)-[4-[5-(trifluoromethyl)-1,2,4-oxadiazol-3-yl]phenyl]methanone], the pest or weed control at 200 ppm in series [1] and in series [2] was no less than 80% throughout. Further, the inhibition of growth at 20 ppm in series [3] was no less than 80%.

With `Cc1ncc(C(=O)c2ccc(-c3noc(C(F)(F)F)n3)cc2)s1` [Compound 1.34, (2-methylthiazol-5-yl)-[4-[5-(trifluoromethyl)-1,2,4-oxadiazol-3-yl]phenyl]methanone], the melting point lay within 116 to 120 °C. Further, the pest or weed control at 200 ppm in series [2] was no less than 80%. Besides, the inhibition of growth at 20 ppm in series [3] was no less than 80%.

For the compound `C=C(C)CC(O)(c1ccc(-c2noc(C(F)(F)F)n2)cc1)c1cc(C)no1` (stereo not drawn) [Compound 2.24, 3-methyl-1-(3-methylisoxazol-5-yl)-1-[4-[5-(trifluoromethyl)-1,2,4-oxadiazol-3-yl]phenyl]but-3-en-1-ol], the pest or weed control at 200 ppm in series [1] and in series [2] was no less than 80% throughout.

Consider `N#Cc1ccc(C(=O)c2ccc(-c3noc(C(F)(F)F)n3)nc2)cc1` [Compound 1.30, 4-[6-[5-(trifluoromethyl)-1,2,4-oxadiazol-3-yl]pyridine-3-carbonyl]benzonitrile], for which the melting point was 142 to 146 °C. Further, the pest or weed control at 200 ppm in series [1] is no less than 80%. In addition, the pest or weed control at 200 ppm in series [2] is no less than 80%. For the same compound, the inhibition of growth at 20 ppm in series [3] is no less than 80%.

`Cc1ncc(C(O)c2ccc(-c3noc(C(F)(F)F)n3)cc2)s1` (stereo not drawn) [Compound 2.22, (2-methylthiazol-5-yl)-[4-[5-(trifluoromethyl)-1,2,4-oxadiazol-3-yl]phenyl]methanol] had a melting point of 104 to 108 °C. In addition, the pest or weed control at 200 ppm in series [1] is no less than 80%. Also, the pest or weed control at 200 ppm in series [2] was no less than 80%.

As for `Cc1nc(C(O)c2ccc(-c3noc(C(F)(F)F)n3)cc2)cs1` (stereo not drawn) [Compound 2.20, (2-methylthiazol-4-yl)-[4-[5-(trifluoromethyl)-1,2,4-oxadiazol-3-yl]phenyl]methanol], the melting point is 95 to 99 °C. The pest or weed control at 200 ppm in series [1] was no less than 80%. The pest or weed control at 200 ppm in series [2] is no less than 80%.

Consider `OC(c1ccc(-c2noc(C(F)(F)F)n2)cc1)c1ccccn1` (stereo not drawn) [Compound 2.12, 2-pyridyl-[4-[5-(trifluoromethyl)-1,2,4-oxadiazol-3-yl]phenyl]methanol], for which the pest or weed control at 200 ppm (in series [1]; in series [2]; in the series with Phakopsora pachyrhizi) was no less than 80% in each case. For the same compound, the inhibition of growth at 20 ppm in series [3] is no less than 80%.

The values are drawn from patent US11026427B2, “Microbiocidal oxadiazole derivatives” (SYNGENTA PARTICIPATIONS AG, priority 2016, dated 2021).
